A short description of series [1]: Rat body temperature after IP administration. It counts as in vivo, Sprague Dawley rats. The settings on record: 200 minutes after injection. The method, then:
Methods and Procedure: This study was conducted in compliance with previously described procedures to assure data integrity, adherence to GLP regulations, and standard preclinical study and surgery procedures. The in vivo microdialysis technique was applied to measure the over-time variations of DA, 5-HT, and NE extracellular (EC) concentrations in conscious, freely-moving Sprague Dawley rats. At the end of each experimental session (200 minutes after injection), body temperature (° C.) of Sprague Dawley rats was monitored using a digital thermometer with a rectal probe.

For series [2], the target named is T1, P-glycoprotein (P-gp, MDR1) (Homo sapiens, UniProt P08183).
T1 construct: expressed in transfected cells; host or cells: MDCKII-MDR1 (Madin-Darby Canine Kidney clone II)
As to the kind of experiment: Bidirectional permeability and P-gp substrate assay in MDCKII-MDR1 cells. The conditions noted are these: human, MDCK-MDR1, pH 7.4; efflux ratio, MDCKII-MDR1 cells; read-out: MDCKII-MDR1 B-A ratio. The series is classed as in vitro ADME. The method, then: Methods: A bidirectional permeability study was conducted to evaluate the apparent permeability (Papp) of therapeutic compounds. Additionally, the MDCKII-MDR1 cell line (Madin-Darby Canine Kidney clone II cell line heterologously expressing the human P-glycoprotein transporter) and mock cell line MDCKII were used to determine whether a compound acted as a P-gp substrate, in the absence and in the presence of a potent P-gp inhibitor. Test control items (digoxin, metoprolol, and atenolol) and control P-gp inhibitor (GF120918) stock solution were prepared in DMSO. Bidirectional assays (Apical to Basolateral [AB] and Basolateral to Apical [BA]) were run, in both the absence and presence of P-gp inhibitor GF120918 in MDCKII-MDR1 and mock cell line MDCKII, using as transport buffer HBSSH at a pH of 7.4 (n=3).
Compounds were tested at a single concentration (i.e. at […]) at one time point (i.e. 60 min). Alternative concentrations or time points may also be investigated. As reference compounds, digoxin (P-gp substrate), atenolol (low permeability) and metoprolol (high permeability) were included at a single concentration (e.g., 10 or […]) and at single time point (e.g., 60 min). Digoxin transport was evaluated in two directions (apical-to-basolateral [AB] and basolateral-to-apical [BA]) in the absence and presence of GF120918 or in mock cells, MDCKII (n=3). Atenolol and metoprolol were only tested in the AB direction in absence of P-gp inhibitor GF120918 or in mock cells, MDCKII (n=3). The integrity of the cell monolayer was evaluated after the permeability experiment using the paracellular permeability marker Lucifer yellow (LY) in the apical to basolateral direction in each well.
MDCKII or MDCKII-MDR1 cells were cultivated in DMEM (high glucose, GlutaMAXTM supplemented with pyruvate, 10% FBS HI and Pen/Strep). Cells were seeded onto microporous PET (Polyethylene Terephthalate) membranes in HTS 96-Multiwell Insert plates at a density of ˜175,000-245,000 cells/cm^2 (25000-35000 cells/well; 50 μL/well) in DMEM medium and incubated for 3-4 days at 37° C.-5% CO2. Medium was changed the day before the experiment.
Stock solutions of test items were prepared in DMSO at a concentration of 5 or 10 mM and stored at −20° C. until use. The potent P-gp inhibitor, GF120918 (stock solution 10 mM) and the reference controls digoxin, atenolol, metoprolol (stock solutions 3 or 10 mM) were prepared in DMSO and stored at −20° C. until use.
Donor working solutions of test items and reference controls were prepared at a concentration of 10 or 25 µM, diluting the stock solutions in HBSSH. Receiver working solutions contained transport buffer only. All working solutions were prepared such that the final concentration of DMSO was 1% (v/v). A donor working solution containing LY was also prepared in transport buffer at 100 µM.
MDCKII and MDCKII-MDR1 cells were preincubated (37° C., 15 to 30 minutes) in receiver working solutions containing transport buffer on apical (A) and basolateral (B) sides. Following pre-incubation, test items and control items (digoxin) transport were measured in two directions (apical to basolateral [AB]) and basolateral to apical [BA]), and these directions were performed in triplicate sets of wells, in both the absence and presence of […] GF120918 or mock MDCKII cells. For [AB] directional transport, 75 μL of donor working solution was added to the A (apical) compartment and 235 μL of receiver working solution was added to the B (basolateral) compartment. For [BA] directional transport, 235 μL donor working solution with test items or reference controls was added to the B compartment and 75 μL receiver working solution was added to the A compartment. Transport of permeability reference controls, atenolol and metoprolol, were measured in one direction (apical to basolateral [AB]) (n=3).
The cells were incubated (at 37° C., with shaking) for 60 minutes. […]

The next series concerns DAT/SERT. The conditions noted are these: Simmler et al., Br J Pharmacol. 2013; cited from earlier work.
For series [3] the following is noted: MDMA at doses of 100-125 mg, literature; cited from earlier work.

Each structure is given as a SMILES string. “Also recorded” adds a separate entry of the source.

T1 sequence (P08183 whole entry): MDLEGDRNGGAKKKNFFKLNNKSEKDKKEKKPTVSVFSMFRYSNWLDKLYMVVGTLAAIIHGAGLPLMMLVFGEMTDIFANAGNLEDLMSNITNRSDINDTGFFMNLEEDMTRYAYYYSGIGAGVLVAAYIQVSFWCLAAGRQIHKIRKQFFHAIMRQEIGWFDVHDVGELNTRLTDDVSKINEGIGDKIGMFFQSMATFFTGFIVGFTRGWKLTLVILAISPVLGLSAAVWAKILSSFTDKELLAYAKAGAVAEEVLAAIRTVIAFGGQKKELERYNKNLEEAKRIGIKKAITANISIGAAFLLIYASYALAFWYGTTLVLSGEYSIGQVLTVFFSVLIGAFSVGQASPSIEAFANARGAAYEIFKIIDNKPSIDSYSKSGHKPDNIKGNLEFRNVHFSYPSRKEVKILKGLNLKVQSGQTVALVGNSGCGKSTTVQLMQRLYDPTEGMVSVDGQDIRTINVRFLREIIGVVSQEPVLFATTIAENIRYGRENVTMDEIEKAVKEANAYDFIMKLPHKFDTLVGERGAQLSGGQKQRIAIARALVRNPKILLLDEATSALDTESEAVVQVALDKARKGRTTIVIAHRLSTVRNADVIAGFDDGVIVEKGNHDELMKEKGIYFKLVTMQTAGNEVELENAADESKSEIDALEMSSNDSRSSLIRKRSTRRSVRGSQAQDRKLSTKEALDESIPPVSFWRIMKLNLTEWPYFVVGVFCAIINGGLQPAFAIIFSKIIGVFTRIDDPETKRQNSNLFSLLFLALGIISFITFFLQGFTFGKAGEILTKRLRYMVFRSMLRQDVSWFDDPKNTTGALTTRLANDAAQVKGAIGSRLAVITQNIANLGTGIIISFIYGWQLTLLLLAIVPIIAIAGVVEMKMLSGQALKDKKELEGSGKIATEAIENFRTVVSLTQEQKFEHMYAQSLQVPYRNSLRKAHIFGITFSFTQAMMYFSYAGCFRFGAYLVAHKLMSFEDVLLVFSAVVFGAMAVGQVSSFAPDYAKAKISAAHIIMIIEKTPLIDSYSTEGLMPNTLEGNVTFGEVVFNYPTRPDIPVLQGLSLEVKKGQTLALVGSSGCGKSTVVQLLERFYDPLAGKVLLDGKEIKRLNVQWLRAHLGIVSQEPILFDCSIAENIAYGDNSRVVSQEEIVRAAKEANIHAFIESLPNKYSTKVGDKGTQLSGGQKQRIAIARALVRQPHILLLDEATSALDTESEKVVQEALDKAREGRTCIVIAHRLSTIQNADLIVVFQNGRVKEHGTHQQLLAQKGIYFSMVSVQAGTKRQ

Turning to `COC(=O)c1ccc2c(c1)CC(N)C2` (stereo not shown) [CMP-405, 2-aminoindane-5-methylcarboxylate], the “change in rat body temperature (rectal) relative to vehicle” value in series [1] is reported as “lower than the change observed following administration of MDMA; also recorded: significantly lower than the change in temperature caused by MDMA”. In addition, in series [2], the efflux ratio at 60 min came to 1.1.

With `CNC(C)Cc1ccc2c(c1)OCO2` (stereo not shown) [MDMA], the “change in rat body temperature (rectal) relative to vehicle” value in series [1] was 1.6 °C. Besides, the DAT/SERT ratio in the series on DAT/SERT is reported as 0.8. Also, in series [3], the “increase in blood pressure (diastolic)” value is reported as 14.4-25 mmg and the “increase in heart rate” value was 26-30 bpm.

Regarding `COc1ccc2c(c1)CC(N)C2` (stereo not shown) [MEAI, 5-methoxy-2-aminoindane], the efflux ratio at 60 min in series [2] is 1.

Source of the values: patent publication US20260159474A1, “Aminoindane Compounds and Compositions and Methods of Their Therapeutic Use” (Solvonis Therapeutics Ireland Holdings Limited, priority 2021, published 2026).
